The experiment deals with T1, human PPARalpha (Homo sapiens, UniProt Q07869).
T1 construct: human PPARalpha receptor (amino acids S167-Y468); expressed in transfected cells; host or cells: HEK (human embryo kidney) cells, stably transfected with pcDNA3 carrying the fusion construct
T1 sequence (Q07869 167-468): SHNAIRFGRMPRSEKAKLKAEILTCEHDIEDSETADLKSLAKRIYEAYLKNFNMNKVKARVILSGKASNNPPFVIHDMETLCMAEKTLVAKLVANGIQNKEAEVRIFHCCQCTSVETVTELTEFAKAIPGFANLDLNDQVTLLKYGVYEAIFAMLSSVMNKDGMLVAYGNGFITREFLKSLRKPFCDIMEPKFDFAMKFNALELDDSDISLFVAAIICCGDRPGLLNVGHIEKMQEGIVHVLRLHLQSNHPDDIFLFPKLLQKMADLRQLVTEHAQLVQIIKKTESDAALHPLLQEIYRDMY
Kind of experiment: Cellular PPARalpha assay (stably transfected HEK luciferase reporter cell line). As to conditions: GR-GAL4-humanPPARalpha-LBD, luciferase readout. The class given is cell-based. On the procedure:
The potency of substances which bind to human PPARalpha and activate in an agonistic manner is analyzed using a stably transfected HEK cell line (HEK=human embryo kidney) which is referred to here as PPARalpha reporter cell line. It contains two genetic elements, a luciferase reporter element (pdeltaM-GAL4-Luc-Zeo) and a PPARalpha fusion protein (GR-GAL4-humanPPARalpha-LBD) which mediates expression of the luciferase reporter element depending on a PPARalpha ligand. The stably and constitutively expressed fusion protein GR-GAL4-humanPPARalpha-LBD binds in the cell nucleus of the PPARalpha reporter cell line via the GAL4 protein portion to the GAL4 DNA binding motifs 5′-upstream of the luciferase reporter element which is integrated in the genome of the cell line. There is only little expression of the luciferase reporter gene without addition of a PPARalpha ligand if fatty acid-depleted fetal calf serum (cs-FCS) is used in the assay. PPARalpha ligands bind and activate the PPARalpha fusion protein and thereby bring about expression of the luciferase reporter gene. The luciferase which is formed can be detected by means of chemiluminescence via an appropriate substrate.
The PPARalpha reporter cell line was prepared in 2 stages. Firstly, the luciferase reporter element was constructed and stably transfected into HEK cells. […] The minimal MMTV promoter section contains a CCAAT box and a TATA element in order to enable efficient transcription by RNA polymerase II. […] Then the complete Photinus pyralis gene (Genbank Accession # M15077) was cloned in 3′-downstream of the GAL4-MMTV element. After sequencing, the luceriferase reporter element consisting of five GAL4 binding sites, MMTV promoter and luciferase gene was recloned into a plasmid which confers zeocin resistance in order to obtain the plasmid pdeltaM-GAL4-Luc-Zeo. This vector was transfected into HEK cells in accordance with the statements in Ausubel, F. M. et al. (Current protocols in molecular biology, Vol. 1-3, John Wiley & Sons, Inc., 1995). […] In a second step, the PPARalpha fusion protein (GR-GAL4-humanPPARalpha-LBD) was introduced into the stable cell clone described. […] The cDNA of the ligand-binding domain of the human PPARalpha receptor (amino acids S167-Y468; Genbank Accession # S74349) was cloned in at the 3′-end of this GR-GAL4 construct. The fusion construct prepared in this way (GR-GAL4-humanPPARalpha-LBD) was recloned into the plasmid pcDNA3 (from Invitrogen) in order to enable constitutive expression therein by the cytomegalovirus promoter. This plasmid was linearized with a restriction endonuclease and stably transfected into the previously described cell clone containing the luciferase reporter element. The finished PPARalpha reporter cell line which contains a luciferase reporter element and constitutively expresses the PPARalpha fusion protein (GR-GAL4-human PPARalpha-LBD) was isolated by selection with zeocin (0.5 mg/ml) and G418 (0.5 mg/ml).
The activity of PPARalpha agonists is determined in a 3-day assay which is described below: […]
On the technique in general: Reporter assays use an easily measured gene product as a stand-in for the process of interest.
`CCCCNC(=O)N(CCOC1CCCC(OCc2cccc(C)c2C(=O)O)C1)C(C)CC(C)C` (mixture of isomers) [XXII, 2-(cis-3-{2-[3-butyl-1-((1S)/(1R),3-dimethylbutyl)-ureido]ethoxy}cyclohexyloxymethyl)-6-methylbenzoic acid]: the half-maximal effective concentration (EC50) (commonly the midpoint of the concentration-response curve) worked out at 3.3 nM.
The value for `Cc1cccc(CO[C@@H]2CCC[C@H](OCCN(C(=O)Nc3cccc(F)c3)C3CC3)C2)c1C(=O)O` (racemic) [XLV, 2-(cis-3-{2-[1-cyclopropyl-3-(3-fluorophenyl)-ureido]ethoxy}cyclohexyloxymethyl)-6-methylbenzoic acid] was 90 nM; that for `Cc1ccccc1NC(=O)N(CCO[C@H]1CCC[C@@H](OCc2cccc(C)c2C(=O)O)C1)C1CCCCC1` (racemic) [XV, 2-{cis-3-[2-(1-cyclohexyl-3-o-tolylureido)ethoxy]cyclohexyloxymethyl}-6-methylbenzoic acid] was 31 nM; that for `Cc1cccc(CO[C@@H]2CCC[C@H](OCCN(C(=O)Nc3cccc(F)c3)C3CCCCC3)C2)c1C(=O)O` (racemic) [XVI, 2-(cis-3-{2-[1-cyclohexyl-3-(3-fluorophenyl)-ureido]ethoxy}cyclohexyloxymethyl)-6-methylbenzoic acid] was 38 nM.
Molecule `CCCCNC(=O)N(CCO[C@H]1CCC[C@@H](OCc2cccc(C)c2C(=O)O)C1)C1CCCCC1` (racemic) [XVII, 2-{cis-3-[2-(3-butyl-1-cyclohexylureido)ethoxy]cyclohexyloxymethyl}-6-methylbenzoic acid] yielded an EC50 of 84 nM. Against the preceding molecule, the EC50 is about 2.2-fold higher.
The value for `CCCCCCCN(CCO[C@H]1CCC[C@@H](OCc2cccc(C)c2C(=O)O)C1)C(=O)NCCCC` (racemic) [XXXIX, 2-{cis-3-[2-(3-butyl-1-heptylureido)ethoxy]cyclohexyloxy-methyl}-6-methylbenzoic acid] was 0.17 nM.
The value for `Cc1cccc(CO[C@@H]2CCC[C@H](OCCN(CCCc3ccccc3)C(=O)Nc3ccccc3)C2)c1C(=O)O` [Example I, 2-{(1R,3S)-3-[2-(1-[3-phenylpropyl]-3-phenylureido)ethoxy]cyclohexyloxymethyl}-6-methylbenzoic acid] was 1.9 nM.
The value for `Cc1cccc(CO[C@@H]2CCC[C@H](OCCN(CCc3ccc(Cl)cc3)C(=O)Nc3ccccc3)C2)c1C(=O)O` [II, 2-{(1R,3S)-3-[2-(1-[2-(4-chlorophenyl)ethyl]-3-phenylureido)ethoxy]cyclohexyloxymethyl}-6-methylbenzoic acid] was 4.9 nM.
`CCCCCCCN(CCO[C@H]1CCC[C@@H](OCc2cccc(C)c2C(=O)O)C1)C(=O)Nc1ccccc1` [IX, 2-{(1R,3S)-3-[2-(1-heptyl-3-phenylureido)ethoxy]cyclohexyloxymethyl}-6-methylbenzoic acid] had an EC50 of 0.13 nM.
The value for `CCCCCN(CCO[C@H]1CCC[C@@H](OCc2cccc(C)c2C(=O)O)C1)C(=O)Nc1ccccc1` [VII, 2-{(1 R,3S)-3-[2-(1-pentyl-3-phenylureido)ethoxy]cyclohexyloxymethyl}-6-methylbenzoic acid] was 1.7 nM; that for `Cc1cccc(CO[C@@H]2CCC[C@H](OCCN(CC(C)(C)C)C(=O)Nc3ccccc3)C2)c1C(=O)O` [VIII, 2-((1R,3S)-3-{2-[1-(2,2-dimethylpropyl)-3-phenylureido]ethoxy}cyclohexyloxymethyl)-6-methylbenzoic acid] was 96 nM; that for `CCCCNC(=O)N(CCO[C@H]1CCC[C@@H](OCc2cccc(C)c2C(=O)O)C1)Cc1ccc(C)cc1` [XII, 2-((1R,3S)-3-{2-[3-butyl-1-(4-methylbenzyl)ureido]ethoxy}-cyclohexyloxymethyl)-6-methylbenzoic acid] was 0.07 nM.
